Measurements taken from the NIST ThermoML archive (doi:10.1021/je7001094).
± gives the expanded uncertainty stated by the source.

Assays:
[1] = Molar enthalpy of transition or fusion; conditions: Crystal; DSC
[2] = Crystal; DTA
[3] = molar heat capacity at constant pressure; conditions: 323.1 K; 101.33 kPa; Crystal; Small sample (50 mg) DSC

| SMILES | Molar enthalpy of transition or fusion [1] | Normal melting temperature [2] | molar heat capacity at constant pressure [3] |
| --- | --- | --- | --- |
| COc1ccc([C@@H]2CC(=O)c3c(O)cc(O)cc3O2)cc1O | 8.58 ± 0.191 kcal/mol | 226.07 ± 2 °C | 906 ± 530 J/K/mol |
| O=C1CC(c2ccc(O)cc2)Oc2cc(O)cc(O)c21 (stereo not drawn) [4',5,7-trihydroxyflavanone] | 9.51 ± 0.239 kcal/mol | 250.00 ± 1.2 °C | 259.7 ± 32 J/K/mol |
| O=c1cc(-c2ccccc2)oc2cc(O)cc(O)c12 [5,7-dihydroxyflavone] | 9.37 ± 0.215 kcal/mol | 285.00 ± 2.2 °C | 200.6 ± 110 J/K/mol |
| C[C@@H]1O[C@@H](OC[C@H]2O[C@@H](Oc3c(-c4ccc(O)c(O)c4)oc4cc(O)cc(O)c4c3=O)[C@H](O)[C@@H](O)[C@@H]2O)[C@H](O)[C@H](O)[C@H]1O [rutin] | 19.7 ± 0.406 kcal/mol | 177.00 ± 3 °C | 915 ± 160 J/K/mol |

The remaining lines, values ahead:

| Molar enthalpy of transition or fusion [1] | Normal melting temperature [2] | molar heat capacity at constant pressure [3] | SMILES |
| --- | --- | --- | --- |
| 11.9 ± 0.502 kcal/mol | 198.00 ± 3 °C | 947.9 ± 30 J/K/mol | O=c1c(O[C@@H]2O[C@H]([C@H](O)CO)[C@H](O)[C@H]2O)c(-c2ccc(O)c(O)c2)oc2cc(O)cc(O)c12 [isoquercitrin] |
| 9.92 ± 0.335 kcal/mol | 322.00 ± 1.4 °C | 585.9 ± 170 J/K/mol | O=c1c(O)c(-c2ccc(O)c(O)c2)oc2cc(O)cc(O)c12 [quercetin] |
